This is an account of results in patent EP4818168A1, “FUSED RING COMPOUND, PHARMACEUTICAL COMPOSITION THEREOF AND USE THEREOF” (priority 2023, dated 2025).

For one test, the system named is H82 cells. The test is described as follows: cells. It counts as cell-based. To be noted: Homo sapiens. Put shortly:
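After 6 days' compound treatment at 37 °C (final DMSO 0.1%, RPMI1640/10% FBS), viable H82 cells were quantified by ATP-dependent CellTiter-Glo luminescence. Remaining activity was calculated against DMSO and medium wells, and a sigmoidal fit gave IC50.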

For another test, the target named is T1, AURKA (Homo sapiens, UniProt O14965).
T1 construct: endogenous in cells; host or cells: Jurkat cells
T1 sequence (O14965 1-403): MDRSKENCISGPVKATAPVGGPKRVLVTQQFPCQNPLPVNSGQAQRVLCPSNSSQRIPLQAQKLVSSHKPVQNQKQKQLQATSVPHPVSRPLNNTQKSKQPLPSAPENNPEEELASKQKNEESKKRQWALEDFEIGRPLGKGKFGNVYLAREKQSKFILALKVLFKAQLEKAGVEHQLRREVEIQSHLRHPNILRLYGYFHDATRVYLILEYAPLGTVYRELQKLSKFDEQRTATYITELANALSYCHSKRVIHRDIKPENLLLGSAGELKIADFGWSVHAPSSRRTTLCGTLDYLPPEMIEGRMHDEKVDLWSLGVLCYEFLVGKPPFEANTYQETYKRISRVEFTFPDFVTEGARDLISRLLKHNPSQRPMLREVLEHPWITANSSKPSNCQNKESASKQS
The format is cell-based. Put shortly: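 AURKA degradation read by western blot: band signal, fluorescent or chemiluminescent, curve-fitted to derive DC50. Cells were Jurkat, plated at 1×10^6 cells/500 µL with compound, then lysed and blotted onto nitrocellulose, primary antibody overnight at 4°C.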

Where [1] appears, read: NCI-H82, H82 cells, 4000 cells/well, CellTiter-Glo, read-out: IC50 in H82 Cells.
[2] abbreviates: 100 nM compound, Jurkat cells, 24 h, Table 2.
[3] abbreviates: 1 µM compound, Jurkat cells, 24 h, Table 2.
[4] abbreviates: NCI-H82, read-out: IC50 in H82 Cells.

Like-named read-outs stand apart in the source and are kept apart here.

With `O=C1CCN(c2ccc(N3CCOC(C(=O)N4CCN(c5ccc(Nc6ncc7c(n6)-c6ccc(Cl)cc6C(c6nccs6)=NC7)cc5)CC4)C3)nc2)C(=O)N1` (stereo not drawn) [Compound A343], in the test on H82 cells (setting [1]), the IC50 was < 1000 nM. Further, the “Percentage of AURKA Degradation Induced by 100 nM Compound in Jurkat Cells” value (shortened to “Percentage … by 100 nM Compound in Jurkat Cells”) at AURKA (setting [2]) is on record as “+++ (Degradation > 70%)”. Moreover, the “Percentage of AURKA Degradation Induced by 1 µM Compound in Jurkat Cells” value (shortened to “Percentage … by 1 µM Compound in Jurkat Cells”) at AURKA (setting [3]) is “+++ (Degradation > 70%)”.

For the compound `O=C1CCN(c2ccc(N3CCC4(CC3)CC(N3CCN(c5ccc(Nc6ncc7c(n6)-c6ccc(Cl)cc6C(c6nccs6)=NC7)cc5)CC3)CO4)nc2)C(=O)N1` (stereo not drawn) [Compound A345], the IC50 in the test with H82 cells (setting [1]) is < 1000 nM. Further, the “Percentage … by 100 nM Compound in Jurkat Cells” value on AURKA (setting [2]) was “+++ (Degradation > 70%)”. In addition, on AURKA (setting [3]), the “Percentage … by 1 µM Compound in Jurkat Cells” value is “+++ (Degradation > 70%)”.

Consider `O=C1CCN(c2ccc(N3CCC4(CC3)CN(C3CCN(c5ccc(Nc6ncc7c(n6)-c6ccc(Cl)cc6C(c6c(F)cccc6F)=NC7)cc5)CC3)CCO4)nc2)C(=O)N1` [Compound A346], for which, in the test on H82 cells (setting [4]), the IC50 was < 1000 nM. For the same compound, on AURKA, the “Percentage … by 100 nM Compound in Jurkat Cells” value is “+++ (key: +: Degradation ≤ 30%; ++: 30% < Degradation ≤ 70%; +++: Degradation > 70%)” and the “Percentage … by 1 µM Compound in Jurkat Cells” value is “+++ (key: +: Degradation ≤ 30%; ++: 30% < Degradation ≤ 70%; +++: Degradation > 70%)”.

For `O=C1CCN(c2ccc(N3CCC4(CC3)CN(C3CCN(c5cccc(Nc6ncc7c(n6)-c6ccc(Cl)cc6C(c6c(F)cccc6F)=NC7)c5)CC3)CCO4)nc2)C(=O)N1` [Compound A347], in the test on H82 cells (setting [4]), the IC50 is < 1000 nM. Also, at AURKA, the “Percentage … by 100 nM Compound in Jurkat Cells” value was “+++ (key: +: Degradation ≤ 30%; ++: 30% < Degradation ≤ 70%; +++: Degradation > 70%)” and the “Percentage … by 1 µM Compound in Jurkat Cells” value is reported as “+++ (key: +: Degradation ≤ 30%; ++: 30% < Degradation ≤ 70%; +++: Degradation > 70%)”.

On to `O=C1CCN(c2ccc(N3CCC(N4CCC(c5ccc(Nc6ncc7c(n6)-c6ccc(Cl)cc6C(c6c(F)cccc6F)=NC7)cc5)C(F)(F)C4)CC3)nc2)C(=O)N1` (stereo not drawn) [Compound A350], for which the IC50 with H82 cells (setting [4]) is < 1000 nM. Also, at AURKA (setting [2]), the “Percentage … by 100 nM Compound in Jurkat Cells” value is on record as “+++ (Degradation > 70%)”. The “Percentage … by 1 µM Compound in Jurkat Cells” value on AURKA (setting [3]) was “+++ (Degradation > 70%)”.

`O=C1CCN(c2ccc(N3CCC4(CC3)CC(N3CCC(c5ccc(Nc6ncc7c(n6)-c6ccc(Cl)cc6C(c6c(F)cccc6F)=NC7)cc5)C(F)(F)C3)CO4)nc2)C(=O)N1` (stereo not drawn) [Compound A351]: the IC50 with H82 cells (setting [1]) was < 1000 nM. For the same compound, the “Percentage … by 100 nM Compound in Jurkat Cells” value at AURKA (setting [2]) is “+++ (Degradation > 70%)”. Also, the “Percentage … by 1 µM Compound in Jurkat Cells” value on AURKA (setting [3]) is “+++ (Degradation > 70%)”.

As to `O=C1CCN(c2ccc(N3CCC4(CC3)CN(C3CN(c5ccc(Nc6ncc7c(n6)-c6ccc(Cl)cc6C(c6c(F)cccc6F)=NC7)cc5)C3)CCO4)nc2)C(=O)N1` [Compound A352], in the test with H82 cells (setting [4]), the IC50 is < 1000 nM. In addition, the “Percentage … by 100 nM Compound in Jurkat Cells” value at AURKA (setting [2]) was “+++ (Degradation > 70%)”. For the same compound, the “Percentage … by 1 µM Compound in Jurkat Cells” value on AURKA (setting [3]) is recorded as “+++ (Degradation > 70%)”.

For the compound `O=C1CCN(c2ccc(N3CCC4(CC3)CN(CC3CN(c5ccc(Nc6ncc7c(n6)-c6ccc(Cl)cc6C(c6c(F)cccc6F)=NC7)cc5)C3)CCO4)nc2)C(=O)N1` [Compound A353], in the test with H82 cells (setting [1]), the IC50 is < 1000 nM. Moreover, the “Percentage … by 100 nM Compound in Jurkat Cells” value on AURKA (setting [2]) was “+++ (Degradation > 70%)”. For the same compound, the “Percentage … by 1 µM Compound in Jurkat Cells” value at AURKA (setting [3]) is listed as “+++ (Degradation > 70%)”.

Turning to `O=C1CCN(c2ccc(N3CCC4(CC3)CCN(C3CCN(c5ccc(Nc6ncc7c(n6)-c6ccc(Cl)cc6C(c6c(F)cccc6F)=NC7)cc5)CC3)CCO4)nc2)C(=O)N1` [Compound A355], in the test on H82 cells (setting [4]), the IC50 was < 1000 nM. Moreover, the “Percentage … by 100 nM Compound in Jurkat Cells” value at AURKA (setting [2]) is reported as “+++ (Degradation > 70%)”. Further, at AURKA (setting [3]), the “Percentage … by 1 µM Compound in Jurkat Cells” value was “+++ (Degradation > 70%)”.

With `O=C1CCN(c2ccc(N3CC4COCC(C3)N4C3CCN(c4ccc(Nc5ncc6c(n5)-c5ccc(Cl)cc5C(c5c(F)cccc5F)=NC6)cc4)CC3)nc2)C(=O)N1` [Compound A356], the IC50 in the test with H82 cells (setting [1]) is < 1000 nM. The “Percentage … by 100 nM Compound in Jurkat Cells” value at AURKA (setting [2]) was “+++ (Degradation > 70%)”. Also, the “Percentage … by 1 µM Compound in Jurkat Cells” value on AURKA (setting [3]) was “+++ (Degradation > 70%)”.

Regarding `O=C1CCN(c2ccc(N3CCC(N4C5COCC4CN(c4ccc(Nc6ncc7c(n6)-c6ccc(Cl)cc6C(c6c(F)cccc6F)=NC7)cc4)C5)CC3)nc2)C(=O)N1` [Compound A357], the IC50 in the test on H82 cells (setting [1]) is < 1000 nM. For the same compound, the “Percentage … by 100 nM Compound in Jurkat Cells” value on AURKA (setting [2]) is on record as “++ (30% < Degradation ≤ 70%)”. Also, the “Percentage … by 1 µM Compound in Jurkat Cells” value on AURKA (setting [3]) was “+ (Degradation ≤ 30%)”.

Consider `O=C1CCN(c2ccc(N3CC4COCC(C3)N4CC3CN(c4ccc(Nc5ncc6c(n5)-c5ccc(Cl)cc5C(c5c(F)cccc5F)=NC6)cc4)C3)nc2)C(=O)N1` [Compound A358], for which, in the test on H82 cells (setting [1]), the IC50 is < 1000 nM. The “Percentage … by 100 nM Compound in Jurkat Cells” value at AURKA (setting [2]) is “+++ (Degradation > 70%)”. Besides, the “Percentage … by 1 µM Compound in Jurkat Cells” value on AURKA (setting [3]) was “+++ (Degradation > 70%)”.

Take `O=C1CCN(c2ccc(N3CC4COCC(C3)N4CC3CCN(c4ccc(Nc5ncc6c(n5)-c5ccc(Cl)cc5C(c5c(F)cccc5F)=NC6)cc4)CC3)nc2)C(=O)N1` [Compound A359]: the IC50 in the test on H82 cells (setting [1]) is < 1000 nM. For the same compound, the “Percentage … by 100 nM Compound in Jurkat Cells” value on AURKA (setting [2]) was “+++ (Degradation > 70%)”. The “Percentage … by 1 µM Compound in Jurkat Cells” value at AURKA (setting [3]) was “+++ (Degradation > 70%)”.

As for `O=C1CCN(c2ccc(N3CC4COCC(C3)N4C3CC4(CCN(c5ccc(Nc6ncc7c(n6)-c6ccc(Cl)cc6C(c6c(F)cccc6F)=NC7)cc5)CC4)C3)nc2)C(=O)N1` [Compound A360], the IC50 in the test with H82 cells (setting [1]) was < 1000 nM. Besides, at AURKA (setting [2]), the “Percentage … by 100 nM Compound in Jurkat Cells” value was “+++ (Degradation > 70%)”. Also, at AURKA (setting [3]), the “Percentage … by 1 µM Compound in Jurkat Cells” value is recorded as “+++ (Degradation > 70%)”.

For the compound `O=C1CCN(c2ccc(N3CCC4(CC3)CC(N3CCN(C56CC(Nc7ncc8c(n7)-c7ccc(Cl)cc7C(c7c(F)cccc7F)=NC8)(C5)C6)CC3)CO4)nc2)C(=O)N1` (stereo not drawn) [Compound A361], the IC50 with H82 cells (setting [1]) is < 1000 nM. On AURKA (setting [2]), the “Percentage … by 100 nM Compound in Jurkat Cells” value is on record as “+++ (Degradation > 70%)”. Besides, the “Percentage … by 1 µM Compound in Jurkat Cells” value on AURKA (setting [3]) is reported as “+++ (Degradation > 70%)”.

As to `Cn1nc(N2CCC(=O)NC2=O)c2ccc(N3CC4COCC(C3)N4C3CCN(c4ccc(Nc5ncc6c(n5)-c5ccc(Cl)cc5C(c5c(F)cccc5F)=NC6)cc4)CC3)cc21` [Compound A362], the 50% inhibitory concentration (IC50) with H82 cells (setting [4]) is < 1000 nM. Moreover, on AURKA (setting [2]), the “Percentage … by 100 nM Compound in Jurkat Cells” value is on record as “+++ (Degradation > 70%)”. Also, at AURKA (setting [3]), the “Percentage … by 1 µM Compound in Jurkat Cells” value is “++ (30% < Degradation ≤ 70%)”.

`COc1cccc(F)c1C1=NCc2cnc(Nc3ccc(N4CCN(C5COC6(CCN(c7ccc(N8CCC(=O)NC8=O)cn7)CC6)C5)CC4)cc3)nc2-c2ccc(Cl)cc21` (stereo not drawn) [Compound A363]: the IC50 in the test with H82 cells (setting [1]) is < 1000 nM. In addition, on AURKA (setting [2]), the “Percentage … by 100 nM Compound in Jurkat Cells” value is listed as “+++ (Degradation > 70%)”. In addition, the “Percentage … by 1 µM Compound in Jurkat Cells” value on AURKA (setting [3]) is recorded as “+++ (Degradation > 70%)”.

As for `Cn1nc(N2CCC(=O)NC2=O)c2cccc(N3CCC4(CC3)CC(N3CCN(c5ccc(Nc6ncc7c(n6)-c6ccc(Cl)cc6C(c6c(F)cccc6F)=NC7)cc5)CC3)CO4)c21` (stereo not drawn) [Compound A364], the IC50 with H82 cells (setting [4]) is < 1000 nM. Further, the “Percentage … by 100 nM Compound in Jurkat Cells” value at AURKA (setting [2]) is on record as “+++ (Degradation > 70%)”. In addition, the “Percentage … by 1 µM Compound in Jurkat Cells” value at AURKA (setting [3]) is “+++ (Degradation > 70%)”.

Consider `Cn1nc(N2CCC(=O)NC2=O)c2ccc(N3CCC4(CC3)CC(N3CCN(c5ccc(Nc6ncc7c(n6)-c6ccc(Cl)cc6C(c6c(F)cccc6F)=NC7)cc5)CC3)CO4)cc21` (stereo not drawn) [Compound A365], for which the IC50 in the test with H82 cells (setting [1]) was < 1000 nM. Besides, the “Percentage … by 100 nM Compound in Jurkat Cells” value at AURKA (setting [2]) is listed as “+++ (Degradation > 70%)”. Further, the “Percentage … by 1 µM Compound in Jurkat Cells” value at AURKA (setting [3]) is “+++ (Degradation > 70%)”.
